Here are results for 25 compounds from patent US12173020B2, “New-type oxazolidinone compounds and preparation method therefor” (priority 2019, dated 2024).

The test system of assay [1] is vancomycin-resistant Enterococcus (VRE). The experiment in a line: agar dilution method, inhibitory effect on VRE. The format is cell-based. The settings on record: for MIC50: Enterococcus, read-out: Minimum inhibitory concentration (MIC50, μg/ml) VRE. An excerpt:
(§1) In order to determine the antibacterial activity of these new oxazolidinone-based compounds, an agar dilution method was used to test the inhibitory effect on methicillin-resistant Staphylococcus aureus (MRSA) and vancomycin-resistant Enterococcus (VRE). The bacteria inhibition effect was expressed as minimum inhibitory concentration (MIC50, μg/ml) The test results are shown in the following table.

Assay [2] deals with methicillin-resistant Staphylococcus aureus (MRSA). In words: agar dilution method, inhibitory effect on MRSA. In kind it is cell-based. As to conditions: for MIC50: Staphylococcus aureus, read-out: Minimum inhibitory concentration (MIC50, μg/ml) MRSA.
Description: as §1

As for `Cn1nnc(-c2ccc(-c3ccc(N4C[C@H](COP(=O)(O)O)OC4=O)cc3F)cn2)n1` [Tedizolid phosphate, reference compound], the MIC50 in assay [1] and in assay [2] was 2 µg/mL throughout.

Consider `CCn1nnc(-c2ccc(-c3ccc(N4C[C@H](CO)OC4=O)cc3F)cn2)n1.O=P(O)(O)O` [compound 79, (R)-3-(3-fluoro-4-(6-(2-ethyl-2H-tetrazol-5-yl)pyridin-3-yl)phenyl)-5-(hydroxymethyl) oxazolidin-2-one phosphate], for which the figures for the MIC50 in assay [1] and in assay [2] were 1.5 µg/mL and 1.8 µg/mL, respectively.

As to `CCn1nnc(-c2ccc(-c3ccc(N4C[C@@H](CO)OC4=O)cc3F)cn2)n1.O=P(O)(O)O` [compound 80, (S)-3-(3-fluoro-4-(6-(2-ethyl-2H-tetrazol-5-yl)pyridin-3-yl)phenyl)-5-(hydroxymethyl) oxazolidin-2-one phosphate], the MIC50 in assay [1] and in assay [2] was 1.9 µg/mL throughout.

With `CCCn1nnc(-c2ccc(-c3ccc(N4C[C@H](CO)OC4=O)cc3F)cn2)n1.O=P(O)(O)O` [compound 81, (R)-3-(3-fluoro-4-(6-(2-propyl-2H-tetrazol-5-yl)pyridin-3-yl)phenyl)-5-(hydroxymethyl) oxazolidin-2-one phosphate], the MIC50 in assay [1] and in assay [2] was 1.2 µg/mL in each case.

In the case of `CCCn1nnc(-c2ccc(-c3ccc(N4C[C@@H](CO)OC4=O)cc3F)cn2)n1.O=P(O)(O)O` [compound 82, (S)-3-(3-fluoro-4-(6-(2-propyl-2H-tetrazol-5-yl)pyridin-3-yl)phenyl)-5-(hydroxymethyl) oxazolidin-2-one phosphate], the MIC50 in assay [1] and in assay [2] was 1.2 µg/mL each time.

In the case of `O=C1O[C@@H](CO)CN1c1ccc(-c2ccc(-c3nnn(C4CC4)n3)nc2)c(F)c1.O=P(O)(O)O` [compound 83, (R)-3-(3-fluoro-4-(6-(2-cyclopropyl-2H-tetrazol-5-yl)pyridin-3-yl)phenyl)-5-(hydroxymethyl) oxazolidin-2-one phosphate], the MIC50 worked out at 0.7 µg/mL in assay [1] and 0.8 µg/mL in assay [2].

For `O=C1O[C@H](CO)CN1c1ccc(-c2ccc(-c3nnn(C4CC4)n3)nc2)c(F)c1.O=P(O)(O)O` [compound 84, (S)-3-(3-fluoro-4-(6-(2-cyclopropyl-2H-tetrazol-5-yl)pyridin-3-yl)phenyl)-5-(hydroxymethyl) oxazolidin-2-one phosphate], the MIC50 in assay [1] and in assay [2] was 0.4 µg/mL each time.

Regarding `C=Cn1nnc(-c2ccc(-c3ccc(N4C[C@H](CO)OC4=O)cc3F)cn2)n1.O=P(O)(O)O` [compound 85, (R)-3-(3-fluoro-4-(6-(2-vinyl-2H-tetrazol-5-yl)pyridin-3-yl)phenyl)-5-(hydroxymethyl) oxazolidin-2-one phosphate], the MIC50 in assay [1] and in assay [2] was 0.2 µg/mL throughout.

For the compound `C=Cn1nnc(-c2ccc(-c3ccc(N4C[C@@H](CO)OC4=O)cc3F)cn2)n1.O=P(O)(O)O` [compound 86, (S)-3-(3-fluoro-4-(6-(2-vinyl-2H-tetrazol-5-yl)pyridin-3-yl)phenyl)-5-(hydroxymethyl) oxazolidin-2-one phosphate], the MIC50 in assay [1] and in assay [2] was 0.3 µg/mL throughout.

Turning to `CC(O)[C@H]1CN(c2ccc(-c3ccc(-c4nnn(C)n4)nc3)c(F)c2)C(=O)O1.O=P(O)(O)O` (stereo partly drawn) [compound 87, (R)-3-(3-fluoro-4-(6-(2-methyl-2H-tetrazol-5-yl)pyridin-3-yl)phenyl)-5-(1-hydroxyethyl) oxazolidin-2-one phosphate], the MIC50 in assay [1] and in assay [2] was 0.3 µg/mL throughout.

As to `CC(O)[C@@H]1CN(c2ccc(-c3ccc(-c4nnn(C)n4)nc3)c(F)c2)C(=O)O1.O=P(O)(O)O` (stereo partly drawn) [compound 88, (S)-3-(3-fluoro-4-(6-(2-methyl-2H-tetrazol-5-yl)pyridin-3-yl)phenyl)-5-(1-hydroxyethyl) oxazolidin-2-one phosphate], the MIC50 in assay [1] and in assay [2] was 0.5 µg/mL in each case.

Regarding `CCC(O)[C@H]1CN(c2ccc(-c3ccc(-c4nnn(C)n4)nc3)c(F)c2)C(=O)O1.O=P(O)(O)O` (stereo partly drawn) [compound 89, (R)-3-(3-fluoro-4-(6-(2-methyl-2H-tetrazol-5-yl)pyridin-3-yl)phenyl)-5-(1-hydroxypropyl) oxazolidin-2-one phosphate], the MIC50 in assay [1] and in assay [2] was 0.4 µg/mL in each case.

As for `CCC(O)[C@@H]1CN(c2ccc(-c3ccc(-c4nnn(C)n4)nc3)c(F)c2)C(=O)O1.O=P(O)(O)O` (stereo partly drawn) [compound 90, (S)-3-(3-fluoro-4-(6-(2-methyl-2H-tetrazol-5-yl)pyridin-3-yl)phenyl)-5-(1-hydroxypropyl) oxazolidin-2-one phosphate], the MIC50 in assay [1] and in assay [2] was 2 µg/mL in each case.

For the compound `Cn1nnc(-c2ccc(-c3ccc(N4C[C@H](C(O)F)OC4=O)cc3F)cn2)n1.O=P(O)(O)O` (stereo partly drawn) [compound 91, (R)-3-(3-fluoro-4-(6-(2-methyl-2H-tetrazol-5-yl)pyridin-3-yl)phenyl)-5-(hydroxyfluoromethyl) oxazolidin-2-one phosphate], the MIC50 in assay [1] and in assay [2] was 1.3 µg/mL each time.

As to `Cn1nnc(-c2ccc(-c3ccc(N4C[C@@H](C(O)F)OC4=O)cc3F)cn2)n1.O=P(O)(O)O` (stereo partly drawn) [compound 92, (S)-3-(3-fluoro-4-(6-(2-methyl-2H-tetrazol-5-yl)pyridin-3-yl)phenyl)-5-(hydroxyfluoromethyl) oxazolidin-2-one phosphate], the MIC50 in assay [1] and in assay [2] was 0.9 µg/mL each time.

`Cn1nnc(-c2ccc(-c3ccc(N4C[C@H](C(O)C(F)(F)F)OC4=O)cc3F)cn2)n1.O=P(O)(O)O` (stereo partly drawn) [compound 93, (R)-3-(3-fluoro-4-(6-(2-methyl-2H-tetrazol-5-yl)pyridin-3-yl)phenyl)-5-(1-hydroxy-2-trifluoroethyl) oxazolidin-2-one phosphate]: the “Minimum inhibitory concentration (MIC50, μg/ml) VRE” value in assay [1] came to 0.7 µg/mL. The “Minimum inhibitory concentration (MIC50, μg/ml) MRSA” value in assay [2] came out at 0.7 µg/mL.

Take `Cn1nnc(-c2ccc(-c3ccc(N4C[C@@H](C(O)C(F)(F)F)OC4=O)cc3F)cn2)n1.O=P(O)(O)O` (stereo partly drawn) [compound 94, (S)-3-(3-fluoro-4-(6-(2-methyl-2H-tetrazol-5-yl)pyridin-3-yl)phenyl)-5-(1-hydroxy-2-trifluoroethyl) oxazolidin-2-one phosphate]: in assay [1], the “Minimum inhibitory concentration (MIC50, μg/ml) VRE” value came out at 1.5 µg/mL. For the same compound, in assay [2], the “Minimum inhibitory concentration (MIC50, μg/ml) MRSA” value was 1.5 µg/mL.

As for `CCn1nnc(-c2ccc(-c3ccc(N4C[C@H](C(O)C(F)(F)F)OC4=O)cc3F)cn2)n1.O=P(O)(O)O` (stereo partly drawn) [compound 95, (R)-3-(3-fluoro-4-(6-(2-ethyl-2H-tetrazol-5-yl)pyridin-3-yl)phenyl)-5-(1-hydroxy-2-trifluoroethyl) oxazolidin-2-one phosphate], the “Minimum inhibitory concentration (MIC50, μg/ml) VRE” value in assay [1] is 0.3 µg/mL. Also, the “Minimum inhibitory concentration (MIC50, μg/ml) MRSA” value in assay [2] was 0.3 µg/mL.

Turning to `CCn1nnc(-c2ccc(-c3ccc(N4C[C@@H](C(OP(=O)(O)O)C(F)(F)F)OC4=O)cc3F)cn2)n1` (stereo partly drawn) [compound 96, (S)-3-(3-fluoro-4-(6-(2-ethyl-2H-tetrazol-5-yl)pyridin-3-yl)phenyl)-5-(1-hydroxy-2-trifluoroethyl) oxazolidin-2-one phosphate], the “Minimum inhibitory concentration (MIC50, μg/ml) VRE” value in assay [1] was 0.8 µg/mL. In assay [2], the “Minimum inhibitory concentration (MIC50, μg/ml) MRSA” value turned out to be 0.8 µg/mL.

In the case of `CCn1nnc(-c2ccc(-c3ccc(N4C[C@H](C(C)O)OC4=O)cc3F)cn2)n1.O=P(O)(O)O` (stereo partly drawn) [compound 97, (R)-3-(3-fluoro-4-(6-(2-ethyl-2H-tetrazol-5-yl)pyridin-3-yl)phenyl)-5-(1-hydroxyethyl) oxazolidin-2-one phosphate], the MIC50 in assay [1] and in assay [2] was 1.1 µg/mL in each case.

Regarding `CCn1nnc(-c2ccc(-c3ccc(N4C[C@@H](C(C)O)OC4=O)cc3F)cn2)n1.O=P(O)(O)O` (stereo partly drawn) [compound 98, (S)-3-(3-fluoro-4-(6-(2-ethyl-2H-tetrazol-5-yl)pyridin-3-yl)phenyl)-5-(1-hydroxyethyl) oxazolidin-2-one phosphate], the MIC50 came out at 1.5 µg/mL in assay [1] and 1.6 µg/mL in assay [2].

Regarding `CCC(O)[C@H]1CN(c2ccc(-c3ccc(-c4nnn(CC)n4)nc3)c(F)c2)C(=O)O1.O=P(O)(O)O` (stereo partly drawn) [compound 99, (R)-3-(3-fluoro-4-(6-(2-ethyl-2H-tetrazol-5-yl)pyridin-3-yl)phenyl)-5-(1-hydroxypropyl) oxazolidin-2-one phosphate], the MIC50 in assay [1] and in assay [2] was 0.2 µg/mL each time.

`CCC(O)[C@@H]1CN(c2ccc(-c3ccc(-c4nnn(CC)n4)nc3)c(F)c2)C(=O)O1.O=P(O)(O)O` (stereo partly drawn) [compound 100, (S)-3-(3-fluoro-4-(6-(2-ethyl-2H-tetrazol-5-yl)pyridin-3-yl)phenyl)-5-(1-hydroxypropyl) oxazolidin-2-one phosphate]: the results for the MIC50 in assay [1] and in assay [2] were 0.3 µg/mL and 0.2 µg/mL, respectively.

On to `CCn1nnc(-c2ccc(-c3ccc(N4C[C@H](C(O)F)OC4=O)cc3F)cn2)n1.O=P(O)(O)O` (stereo partly drawn) [compound 101, (R)-3-(3-fluoro-4-(6-(2-ethyl-2H-tetrazol-5-yl)pyridin-3-yl)phenyl)-5-(hydroxyfluoromethyl) oxazolidin-2-one phosphate], for which the MIC50 in assay [1] and in assay [2] was 0.4 µg/mL each time.

With `CCn1nnc(-c2ccc(-c3ccc(N4C[C@@H](C(O)F)OC4=O)cc3F)cn2)n1.O=P(O)(O)O` (stereo partly drawn) [compound 102, (S)-3-(3-fluoro-4-(6-(2-ethyl-2H-tetrazol-5-yl)pyridin-3-yl)phenyl)-5-(hydroxyfluoromethyl) oxazolidin-2-one phosphate], the MIC50 in assay [1] and in assay [2] was 0.2 µg/mL throughout.
